Structures are written as SMILES. “And” between values parts separate entries of the source, which are not always exact repeats. Identical values can stand only once. Inconclusive results and toxic doses are left out.

The test system of the experiment is P388 leukemia ip, CD2F1 mice, survival T/C. The experiment can be described thus: NCI In Vivo Anticancer Drug Screen. Data for tumor model P388 Leukemia (intraperitoneal) in CD2F1 (CDF1) mice. The note with it: endpoint: median survival time, higher = longer survival. In a few lines:
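Mice carrying the transplanted tumor received test compound or vehicle. Survival was recorded in each group, and the value is the treated-group measurement divided by that of the vehicle-treated control group.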

[1] abbreviates: dose: 60.0 mg/kg/injection, schedule: Q01DX005 (ip), vehicle: Klucel (hydroxypropylcellulose) (HPC).
Where [2] appears, read: dose: 120.0 mg/kg/injection, schedule: Q01DX005 (ip), vehicle: Klucel (hydroxypropylcellulose) (HPC).
[3] abbreviates: dose: 100.0 mg/kg/injection, schedule: Q01DX001 (ip), vehicle: Klucel (hydroxypropylcellulose) (HPC).
[4] abbreviates: dose: 200.0 mg/kg/injection, schedule: Q01DX001 (ip), vehicle: Klucel (hydroxypropylcellulose) (HPC).
Where [5] appears, read: dose: 400.0 mg/kg/injection, schedule: Q01DX001 (ip), vehicle: Klucel (hydroxypropylcellulose) (HPC).
The mark [6] stands for this setting: dose: 50.0 mg/kg/injection, schedule: Q01DX009 (ip), vehicle: saline with Tween-80.
The mark [7] stands for this setting: dose: 100.0 mg/kg/injection, schedule: Q01DX009 (ip), vehicle: saline with Tween-80.
The mark [8] stands for this setting: dose: 200.0 mg/kg/injection, schedule: Q01DX009 (ip), vehicle: saline with Tween-80.

Take `COC1(OC)C(c2ccccc2)C(C#N)(S(=O)(=O)c2ccccc2)C1(OC)OC` (stereo unspecified): the T/C by setting is: under setting [1], 100 % of control; under setting [2], 98 % of control; (dose: 240.0 mg/kg/injection, schedule: Q01DX005 (ip), vehicle: Klucel (hydroxypropylcellulose) (HPC)) 100 % of control.
Regarding `O=C(O)Cc1cn2cc(Cl)cc(Cl)c2n1`, the T/C reads like this: under setting [3], 114 % of control; under setting [4], 101 % of control; under setting [5], 98 % of control.
Consider `CCCCC(CC)COP(=O)(CC(CC)CCCC)OCC(CC)CCCC` (stereo unspecified), for which the T/C runs as follows: (dose: 6.25 mg/kg/injection, schedule: Q01DX009 (ip), vehicle: saline) 109 % of control; (dose: 12.5 mg/kg/injection, schedule: Q01DX009 (ip), vehicle: saline) 109 % of control; (dose: 25.0 mg/kg/injection, schedule: Q01DX009 (ip), vehicle: saline) 109 % of control; (dose: 25.0 mg/kg/injection, schedule: Q04DX003 (ip), vehicle: saline) 100 % of control; (dose: 50.0 mg/kg/injection, schedule: Q04DX003 (ip), vehicle: saline) 100 % of control; (dose: 100.0 mg/kg/injection, schedule: Q04DX003 (ip), vehicle: saline) 113 % of control.
With `COc1cccc2cc3c(NCCCN(C)C)nnc(NCCCN(C)C)c3cc12`, the T/C reads like this: (dose: 7.5 mg/kg/injection, schedule: Q01DX005 (ip), vehicle: saline) 105 % of control; (dose: 15.0 mg/kg/injection, schedule: Q01DX005 (ip), vehicle: saline) 98 % of control.
Regarding `CN1C(=O)C(N=O)C(=O)N(C)C1=S`, the T/C (dose: 6.25 mg/kg/injection, schedule: Q04DX002 (ip), vehicle: saline with Tween-80) was 99 % of control; the T/C (dose: 12.5 mg/kg/injection, schedule: Q04DX002 (ip), vehicle: saline with Tween-80) was 100 % of control; the T/C (dose: 25.0 mg/kg/injection, schedule: Q04DX002 (ip), vehicle: saline with Tween-80) was 101 % of control.
In the case of `CCOC(=O)C1(C(=O)O)CCCN(C(=O)OCc2ccccc2)C1Cc1ccccc1` (stereo unspecified), the T/C is, setting by setting: under setting [3], 99 % of control; under setting [4], 102 % of control; under setting [5], 93 % of control.
Consider `COc1ccc(Cc2n[nH]c(=O)c3c(C)[nH]nc23)cc1`, for which the T/C (dose: 50.0 mg/kg/injection, schedule: Q01DX009 (ip), vehicle: Klucel (hydroxypropylcellulose) (HPC)) is 93 % of control; the T/C (dose: 100.0 mg/kg/injection, schedule: Q01DX009 (ip), vehicle: Klucel (hydroxypropylcellulose) (HPC)) was 100 % of control; the T/C (dose: 200.0 mg/kg/injection, schedule: Q01DX009 (ip), vehicle: Klucel (hydroxypropylcellulose) (HPC)) is 119 % of control.
`Cn1c2ccccc2c2cnn3cnnc3c21`: the T/C (dose: 50.0 mg/kg/injection, schedule: Q01DX001 (ip), vehicle: Klucel (hydroxypropylcellulose) (HPC)) was 91 % of control; the T/C under setting [3] was 88 % of control; the T/C under setting [4] is 96 % of control.
Take `COc1cc(C(NC(N)=O)c2cc3c(cc2OC(C)=O)OCO3)cc(OC)c1OC` (stereo unspecified): the T/C was 90 % of control under setting [1] and 86 % of control under setting [2].
Regarding `CCOC(=O)c1csc(C2OC(COC(=O)c3ccccc3)C(OC(=O)c3ccccc3)C2OC(=O)c2ccccc2)n1` (stereo unspecified), the T/C runs as follows: under setting [6], 96 % of control; under setting [7], 95 % of control; under setting [8], 93 % of control.
As for `COC(=O)CCSC(=O)NC1CCCCC1`, the T/C runs as follows: (dose: 50.0 mg/kg/injection, schedule: Q01DX005 (ip), vehicle: Klucel (hydroxypropylcellulose) (HPC)) 102 % of control; (dose: 100.0 mg/kg/injection, schedule: Q01DX005 (ip), vehicle: Klucel (hydroxypropylcellulose) (HPC)) 107 % of control; (dose: 200.0 mg/kg/injection, schedule: Q01DX005 (ip), vehicle: Klucel (hydroxypropylcellulose) (HPC)) 102 % of control.
Consider `NCCCCC(C(=O)NC(CO)C(=O)O)N(C(=O)OCc1ccccc1)C(=O)OCc1ccccc1` (stereo unspecified), for which the T/C was 101 % of control (dose: 50.0 mg/kg/injection, schedule: Q01DX005 (ip), vehicle: saline with Tween-80); 101 % of control (dose: 100.0 mg/kg/injection, schedule: Q01DX005 (ip), vehicle: saline with Tween-80); 90 % of control (dose: 200.0 mg/kg/injection, schedule: Q01DX005 (ip), vehicle: saline with Tween-80).
Regarding `NC(=O)Nc1ccccc1O`, the T/C by setting is: under setting [7], 98 % of control; under setting [8], 117 % of control; (dose: 400.0 mg/kg/injection, schedule: Q01DX009 (ip), vehicle: saline with Tween-80) 107 % of control.
In the case of `C=CCn1c(=O)n(CC)c(=O)c2[nH]c(Cl)nc21`, the T/C is, setting by setting: (dose: 15.0 mg/kg/injection, schedule: Q01DX009 (ip), vehicle: saline) 106 % of control; (dose: 30.0 mg/kg/injection, schedule: Q01DX009 (ip), vehicle: saline) 110 % of control; (dose: 60.0 mg/kg/injection, schedule: Q01DX009 (ip), vehicle: saline) 104 % of control.
Take `CC(C)C1=CCC2C(=C1)CCC1C(C)(C(N)=O)CCCC21C` (stereo unspecified): the T/C is, setting by setting: (dose: 100.0 mg/kg/injection, schedule: Q01DX001 (ip), vehicle: saline with Tween-80) 100 % of control; (dose: 200.0 mg/kg/injection, schedule: Q01DX001 (ip), vehicle: saline with Tween-80) 100 % of control; (dose: 400.0 mg/kg/injection, schedule: Q01DX001 (ip), vehicle: saline with Tween-80) 100 % of control.
Turning to `CCCCC[C@@H]1CC=C[C@@H](NC(=O)OCc2ccccc2)[C@H]1/C=C/C(=O)CCCCC1OCCO1`, the T/C is 101 % of control (dose: 60.0 mg/kg/injection, schedule: Q01DX005 (ip), vehicle: DMSO); 93 % of control (dose: 120.0 mg/kg/injection, schedule: Q01DX005 (ip), vehicle: DMSO); 98 % of control (dose: 240.0 mg/kg/injection, schedule: Q01DX005 (ip), vehicle: DMSO).
With `Cc1ccccc1/C=N\N1C(=O)C(C)SC1c1ccccc1C` (stereo unspecified), the T/C under setting [6] was 91 % of control and the T/C under setting [7] is 93 % of control.
Regarding `CC(=O)c1c(O)c(C)c(O)c2c1OC1=CC(=O)c3c(C)noc3C12C` (stereo unspecified), the T/C was 102 % of control (dose: 12.5 mg/kg/injection, schedule: Q01DX009 (ip), vehicle: gum acacia); 118 % of control (dose: 25.0 mg/kg/injection, schedule: Q01DX009 (ip), vehicle: gum acacia); 101 % of control and 112 % of control and 113 % of control (dose: 50.0 mg/kg/injection, schedule: Q01DX009 (ip), vehicle: gum acacia); 114 % of control and 118 % of control and 120 % of control (dose: 100.0 mg/kg/injection, schedule: Q01DX009 (ip), vehicle: gum acacia); 104 % of control and 105 % of control (dose: 200.0 mg/kg/injection, schedule: Q01DX009 (ip), vehicle: gum acacia).
On to `CCC12C[N+]3([O-])CCc4c([nH]c5ccccc45)C(C(=O)OC)(c4cc5c(cc4OC)N(C)C4C(O)(C(=O)OC)C(OC(C)=O)C6(CC)C=CCN7CCC54C76)CC(C3)C1O2` (stereo unspecified), for which the T/C (dose: 2.0 mg/kg/injection, schedule: Q01DX001 (ip), vehicle: water) was 102 % of control; the T/C (dose: 8.0 mg/kg/injection, schedule: Q01DX001 (ip), vehicle: distilled water + Tween-80) was 161 % of control; the T/C (dose: 8.0 mg/kg/injection, schedule: Q01DX001 (ip), vehicle: water) is 122 % of control; the T/C (dose: 16.0 mg/kg/injection, schedule: Q01DX001 (ip), vehicle: distilled water + Tween-80) was 193 % of control; the T/C (dose: 32.0 mg/kg/injection, schedule: Q01DX001 (ip), vehicle: water) is 171 % of control; the T/C (dose: 64.0 mg/kg/injection, schedule: Q01DX001 (ip), vehicle: water) is 190 % of control.
`Cc1nc2[nH]c(=O)[nH]c(=O)c2[nH]1`: the T/C runs as follows: (dose: 100.0 mg/kg/injection, schedule: Q04DX003 (ip), vehicle: saline with Tween-80) 100 % of control; (dose: 200.0 mg/kg/injection, schedule: Q04DX003 (ip), vehicle: saline with Tween-80) 113 % of control.
For `O=C1CCC(=O)N2c3ccccc3-c3ccccc3N12`, the T/C reads like this: under setting [6], 95 % of control; under setting [7], 93 % of control; under setting [8], 93 % of control.
As for `C=C/C(C)=C\CC/C(C)=C/c1cc(C(=O)O)co1`, the T/C by setting is: (dose: 4.0 mg/kg/injection, schedule: Q01DX009 (ip), vehicle: Klucel (hydroxypropylcellulose) (HPC)) 104 % of control; (dose: 8.0 mg/kg/injection, schedule: Q01DX009 (ip), vehicle: Klucel (hydroxypropylcellulose) (HPC)) 100 % of control; (dose: 16.0 mg/kg/injection, schedule: Q01DX009 (ip), vehicle: Klucel (hydroxypropylcellulose) (HPC)) 99 % of control; (dose: 32.0 mg/kg/injection, schedule: Q01DX009 (ip), vehicle: Klucel (hydroxypropylcellulose) (HPC)) 100 % of control.

The record behind these values is PubChem BioAssay AID330 (DTP/NCI, 2004).
